Results on 1 compound are retold here after patent US20250362286A1, “SCREENING MODELS AND METHODS OF CANCER TREATMENT” (The Regents of the University of California, priority 2022, published 2025).

Assay [1] concerns Notch-activated epicardium-derived cells (NECs). To be noted: after myocardial infarction; cited from earlier work.
Another assay relates to PIM025. The assay can be described thus: western blot of acetylated H3/H4 in PDOs. Format: cell-based. To be noted: patient-derived organoid model. An excerpt: (§1) Also identified was the fact that a similar increase in acetylation was found in patient-derived organoid models. […] Acetylation and deactylation of histones H3 and H4 are typically orchestrated by Histone Acetyltransferases (HATs), including the several HAT subfamilies, as well as HDACs (see, e.g., Marmorstein, R. et al. Cold Spring Harb. Perspect. Biol. 6, a018762 (2014)). Not wishing to be bound by any particular theory, Isx9 may bind directly to HATs and/or HDACs in order to activate histone acetylation and drive induction of MET and/or CSC differentiation.
(In general: A western blot detects proteins with antibodies after separation by electrophoresis.)

For a further assay, the system named is PA-14-13. As to the kind of experiment: western blot of acetylated H3/H4 in PDOs. In kind it is cell-based. To be noted: patient-derived organoid model.
Description: as §1

In another assay the test system is LL/2 lung cancer cells. The assay can be described thus: western blot of EMT transcription factor TWIST1. Format: cell-based. The conditions noted are these: HD Col1, 7 days. An excerpt: FIG. 4E depicts a western blot analysis of EMT transcription factor TWIST1 in LL/2 lung cancer cells treated with vehicle or ISX9 for 7 days in 2D TC or HD Col1.
Assay [2] relates to MDAs. As to the kind of experiment: RT-qPCR of CD24 expression in MDAs, 7 days. Format: cell-based. The conditions noted are these: after 7 days, population level. An excerpt:
To further assess differentiation status, RT-PCR and flow cytometry (FC) was used to quantify expression of the CSC stemness biomarker signature CD44^+/CD24^− in MDAs. At the population level, MDAs increased CD24 mRNA expression ˜14-fold with ISX9 treatment after 7 days (FIG. 3E). FIG. 3E depicts RT-qPCR of CD24 expression in MD As treated with vehicle or ISX9. […] (FIG. 3F, FIG. 3G). FIG. 3F and FIG. 3G depicts flow cytometry analysis of MDAs treated with vehicle or ISX9.

Assay [3] deals with PA-14-13 PDOs. The assay can be described thus: FACS analysis of CD44+/CD24- CSCs and CDH1+ cells in PDOs. In kind it is cell-based. From the text: (§2) These figures depict flow cytometry analysis of CD44*/CD24 CSC in (FIG. 8F and FIG. 8G) PIM025 PDOs and (FIG. 8H and FIG. 8I) PA-14-13 PDOs treated with vehicle or ISX9.
(§3) FIG. 8J and FIG. 8K depict a flow cytometry analysis of CDH1^+ cells in PIM025 PDOs treated with vehicle or ISX9. FIG. 8L and FIG. 8M depict a flow cytometry analysis of CDH1^+ cells in PA-14-13 PDOs treated with vehicle or ISX9.

A further assay deals with PIM-025 PDOs. The description is as above. In kind it is cell-based.
Description: as §2, §3

Assay [4] concerns MDAs. As to the kind of experiment: CellTiter-Fluor metabolic activity assay. In kind it is cell-based. The conditions noted are these: 2D, 10-40 μM. An excerpt:
FIG. 7C depicts the metabolic activity, cytotoxicity, and relative CD24 expression dose-response to ISX9.

The test system of the next assay is MDA-MB-231s. As to the kind of experiment: CD24 mRNA expression in 2D (differentiation screening). In kind it is cell-based. How it is done:
FIG. 3H depicts relative CD24 mRNA expression. CD24 expression was an early indicator of response to ISX9 in 2D across several TNBC cell lines. Treatment screening of several different TNBC cell lines with ISX9 in 2D for 48h yielded four responders, as determined by CD24 mRNA expression (FIG. 3H).
These analogs were screened for their potential to differentiate MDA-MB-231s, yielding at least one new hit, CR-1 (˜98% similarity), which induced a ˜6-fold upregulation of CD24 at a concentration of 200 μM at 48h in 2D (FIG. 6).

A further assay concerns PIM025 PDOs. The assay can be described thus: RT-qPCR of CD24 and CDH1 expression in PDOs. In kind it is cell-based. To be noted: 20 μM, 48 h. As to the method:
(§4) As a first step towards assessing the efficacy of ISX9 to differentiate patient-derived tumor cells, PDOs from the PIM025 (“hybrid epithelial” EMT status) and PA14-13 (“hybrid mesenchymal” EMT status) TNBC PDX tumors were produced and treated with 20 μM ISX9 for 48 h. […] FIG. 8D and FIG. 8E depict RT-qPCR of CD24 and CDH1 expression in PIM025 PDOs and PA-14-13 PDOs, respectively.

The test system of assay [5] is PA-14-13 PDOs. The assay can be described thus: RT-qPCR of CD24 and CDH1 expression in PDOs. Format: cell-based. To be noted: 20 μM, 48 h. How it is done:
as §4
A general note: Real-time PCR tracks product formation cycle by cycle.

The subject of a further assay is Notch1. As to the kind of experiment: immunofluorescence staining of cleaved intracellular domain of Notch1 in MDAs. Format: cell-based. To be noted: vs vehicle, even in 2D culture. From the text:
FIG. 3B depicts immunofluorescence staining of cell nuclei and cleaved intracellular domain of Notch1 in vehicle and Isx9 treated MDAs.

In assay [6] the test system is MDAs. The assay can be described thus: chemo-susceptibility to doxorubicin after pre-treatment, MTS assay. The conditions noted are these: 7d pre-treatment in HD Col1, then chemotherapy 3d; normalized to vehicle control. Format: cell-based. How it is done:
To determine whether ISX9 could be used in a similar therapeutic function, MDAs and R40P cells were treated with vehicle or ISX9 for 7d in HD Col1, followed by chemotherapy for 3d and MTS assay to quantify viable cells.
In general terms: Tetrazolium dyes change colour on reduction, which living cells bring about.

A further assay has as its system MDA-MB-231 cells. The assay can be described thus: western blot of acetylation of histones H3 and H4. Format: cell-based. To be noted: 2D- and 3D-treated cells, 24 hours.
Description: as §1

In the case of `O=C(NC1CC1)c1cc(-c2cccs2)on1` [ISX9, Isoxazole 9], the “fibrosis and ventricular functional decline after MI” value in assay [1] is “failed to mitigate fibrosis or avert ventricular functional decline after MI”. Further, the “acetylated H3/H4 expression” value in the assay with PIM025 is given as “slight increase in acetylated H3/H4 expression”; with PA-14-13, “large increase in acetylated H3/H4 expression”. Besides, the “TWIST1 protein expression (WB)” value in the assay on LL/2 lung cancer cells is given as “reduced TWIST1 protein expression”. Moreover, the “increase of CD24 mRNA expression” value with MDAs [2] is reported as ~14 fold. Besides, the “CD44+/CD24- CSCs (FACS)” value with PA-14-13 PDOs [3] (after 6 days of treatment) and in the assay on PIM-025 PDOs (after 6 days of treatment) was “reduction in CD44+/CD24− CSCs” throughout. The “CDH1+ cells (FACS)” value is “enrichment in CDH1^+ cells” in the assay with PA-14-13 PDOs [3] (vs vehicle) and “slight reduction in CDH1^+ cells” with PIM-025 PDOs (vs vehicle). For the same compound, the metabolic activity result with MDAs [4] was “decrease in metabolic activity”. In addition, the “CD24 mRNA expression (FC)” value with MDA-MB-231s (48h) was ~31.6. For the same compound, the “CD24 mRNA dose-response” value in the assay with MDA-MB-231s (concentration range 1-40 μM) is given as “upregulation of CD24 mRNA”. Further, the “CDH1 mRNA expression” value with PIM025 PDOs was “slight increase”. Also, the “upregulation of CD24 mRNA transcription” value in the assay with PIM025 PDOs worked out at 1.5 fold. Also, the “upregulation of CD24” value in the assay with PA-14-13 PDOs [5] is reported as ~1,080 fold. In addition, in the assay with PA-14-13 PDOs [5], the “upregulation of CDH1” value is ~41 fold. Besides, the “localization of activated Notch1 (cleaved intracellular domain)” value in the assay on Notch1 is “strong nucleolar localization”. The “decrease in IC50 to doxorubicin” value in the assay with MDAs [6] is on record as ~14.5 fold. Further, in the assay on MDA-MB-231 cells, the “acetylation of histones H3 and H4” value is “significant increase in acetylation of histones H3 and H4”.
